For data set [1], the target named is T1, GlyT2 (Rattus norvegicus, UniProt P58295).
T1 construct: expressed in transfected cells; host or cells: COS7
T1 sequence (P58295 1-799): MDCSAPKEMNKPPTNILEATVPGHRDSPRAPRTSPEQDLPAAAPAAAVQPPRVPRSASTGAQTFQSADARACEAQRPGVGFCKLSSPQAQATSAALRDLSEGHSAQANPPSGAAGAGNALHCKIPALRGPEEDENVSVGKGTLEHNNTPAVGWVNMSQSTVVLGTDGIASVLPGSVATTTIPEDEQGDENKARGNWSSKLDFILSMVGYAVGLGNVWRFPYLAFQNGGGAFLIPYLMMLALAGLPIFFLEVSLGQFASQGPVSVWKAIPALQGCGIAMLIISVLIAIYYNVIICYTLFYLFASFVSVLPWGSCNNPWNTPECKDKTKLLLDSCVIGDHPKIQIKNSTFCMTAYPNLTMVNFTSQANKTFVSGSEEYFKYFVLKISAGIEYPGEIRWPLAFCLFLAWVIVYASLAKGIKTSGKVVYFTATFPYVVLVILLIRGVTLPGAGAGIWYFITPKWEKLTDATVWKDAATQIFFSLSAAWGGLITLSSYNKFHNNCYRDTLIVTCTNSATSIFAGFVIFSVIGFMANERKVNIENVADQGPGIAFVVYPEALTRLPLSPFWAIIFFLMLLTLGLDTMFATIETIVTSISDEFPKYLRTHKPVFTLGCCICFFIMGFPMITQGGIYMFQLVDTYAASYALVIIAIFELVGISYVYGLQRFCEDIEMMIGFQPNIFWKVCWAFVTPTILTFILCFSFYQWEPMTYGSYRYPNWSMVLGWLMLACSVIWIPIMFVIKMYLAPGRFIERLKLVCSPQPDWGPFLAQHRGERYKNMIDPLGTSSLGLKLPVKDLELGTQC
Kind of data set: [3H]glycine transport by recombinant GlyT2 expressed in COS7 cells. In kind it is cell-based. The note with it: for Vmax of glycine transport: n = 3; for reversibility of inhibition upon cell washing: washed, transport at 10 μM glycine; for decay of transport inhibition after 1–4 washes: 1 μM inhibitor 10 min, washes with HBS containing NaCl or choline chloride. As to the method:
Substitution mutants were generated with the QuikChange II Site-Directed Mutagenesis kit (Agilent Technologies, Santa Clara, CA, USA), using rGlyT2 or rGlyT1 subcloned in pCDNA3.[47] The complete coding region of all of the constructs was sequenced to verify that only the desired mutation had been introduced. […] COS7 cells were grown and transfected using Turbofect Transfection Reagent (Thermo Fisher Scientific, Waltham, MA, USA), following the manufacturer’s protocol (2 μL reagent/μg of DNA). Cells were incubated for 48 h at 37 °C until used.
At the end of the desired time (usually 10 min), reactions were washed and terminated by aspiration. […] A nonlinear curve fitting method was used to obtain IC50 values using Graphpad Prism software, version 6.0, Graphpad, San Diego, CA, USA.

Data set [2] deals with T2, GlyT2 A223C mutant (Rattus norvegicus, UniProt P58295, A223C).
T2 construct: expressed in transfected cells; host or cells: COS7
T2 sequence (P58295 1-799 A223C): T1 sequence (P58295 1-799) with A223C
Description: MTSEA-biotin labeling of A223C mutant in NaCl or choline chloride, COS7 cells. In kind it is cell-based. The note with it: 1 μM inhibitor; HBS containing NaCl or choline chloride. From the text:
Several pieces of evidence were obtained to confirm this prediction (Figure 7). […] A second piece of evidence came from experiments using the […] mutant of GlyT2 that contains an exogenous cysteine in EL1, a region sensitive to the different conformations of the transporter induced by the substrates during the transport cycle.[44] […] Then, the cells were washed and subjected to MTSEA-biotin staining as described above.

The conditions of data set [3]: cited from earlier work.
Where [4] appears, read: 1 nM inhibitor, glycine 0.5–500 μM.
Where [5] appears, read: 10 nM inhibitor, glycine 0.5–500 μM.
Setting [6] is: 50 nM inhibitor, glycine 0.5–500 μM.
[7] abbreviates: 100 nM inhibitor, glycine 0.5–500 μM.
Where [8] appears, read: IC50, inhibition of glycine transport, COS7 cells, 10 μM glycine.

Substitutions are numbered along the chain they refer to. Where two headings read alike, the source gives them in different places.

The source of these data is paper PMC8691691 (ACS Chemical Neuroscience, 2021).

With `N[C@@H](COC(c1cccc(F)c1)c1ccccc1OCc1ccccc1)C(=O)O` (stereo partly shown) [ALX1393], the “Vmax of glycine transport” value in data set [1] (setting [4]) is recorded as 22.3 nmol Gly/mg prot/6 min; in data set [1] (setting [5]), 18.8 nmol Gly/mg prot/6 min; in data set [1] (setting [6]) it was 13.2 nmol Gly/mg prot/6 min; in data set [1] (setting [7]) it was 30.4 nmol Gly/mg prot/6 min. In data set [1] (50 nM inhibitor), the “reversibility of inhibition upon cell washing” value was “eliminated by cell washing”. For the same compound, the “decay of transport inhibition after 1–4 washes” value in data set [1] is “presence of sodium in the washing buffer reduced the washing power”. Moreover, the IC50 worked out at 122 ± 20.9 nM in data set [1] (25 mM NaCl, choline chloride substitution, read-out: IC50, inhibition of [3H]-glycine transport, low sodium); 21.8 ± 4.1 nM in data set [1] (150 mM NaCl, read-out: IC50, inhibition of [3H]-glycine transport, regular sodium); 31 ± 2.7 nM in data set [1] (setting [8]). For the same compound, in data set [1] (COS7 cells), the “selectivity for GlyT2 over GlyT1” value is “about 2 orders of magnitude”. Further, the “difference of inhibitor EC50 at every glycine concentration from its value at 10 μM glycine” value in data set [1] (glycine 0.5–500 μM) was “no more than 30%”. The “inhibition type (Eadie–Hofstee plots)” value in data set [1] (glycine 0.5–500 μM) is “noncompetitive behavior”. Besides, the “MTSEA-biotin labeling of A223C, sodium dependence” value in data set [2] is listed as “abolished the label in NaCl but left it intact in choline chloride”. For the same compound, the “fraction of the drug that crosses the blood–brain barrier” value in data set [3] is listed as 5%.
For the compound `COc1cc(C(=O)NCC2(N(C)C)CCCC2)cc(OC)c1OCc1ccccc1` [ORG25543, N-[[1-(dimethylamino)cyclopentyl]methyl]-3,5-dimethoxy-4-(phenylmethoxy)benzamide], the “Vmax of glycine transport” value in data set [1] (setting [4]) is recorded as 24.6 nmol Gly/mg prot/6 min; in data set [1] (setting [5]) it was 23.8 nmol Gly/mg prot/6 min; in data set [1] (setting [6]), 18.6 nmol Gly/mg prot/6 min; in data set [1] (setting [7]) it was 11.5 nmol Gly/mg prot/6 min. Further, the “reversibility of inhibition upon cell washing” value in data set [1] (50 nM inhibitor) is given as “irreversible inhibition”. For the same compound, in data set [1], the “decay of transport inhibition after 1–4 washes” value was “no inhibition decay was observed”. For the same compound, the half-maximal inhibitory concentration (IC50) in data set [1] (IC50 (Table S1), wtGlyT2, 10 μM glycine as in Figs. 4 and 5) came out at 18 ± 5 nM; in data set [1] (IC50, inhibition of [3H]-glycine transport, low sodium, 25 mM NaCl, choline chloride substitution), 51.2 ± 12.3 nM; in data set [1] (IC50, inhibition of [3H]-glycine transport, regular sodium, 150 mM NaCl), 23.8 ± 7.1 nM; in data set [1] (setting [8]), 17.7 ± 4.6 nM. Further, in data set [1] (compared with ALX1393, Figure 2B), the “selectivity for GlyT2 (in words)” value is on record as “higher selectivity for GlyT2”. Also, the “inhibition type (Eadie–Hofstee plots)” value in data set [1] (glycine 0.5–500 μM) is recorded as “mainly noncompetitive behavior”. For the same compound, the “MTSEA-biotin labeling of A223C, sodium dependence” value in data set [2] was “protects the labeling independently of the cation present in the buffer”. The “blood–brain barrier crossing (in words)” value in data set [3] is “can cross the blood–brain barrier”.

In general, IC50 refers to the concentration at which inhibition is half-maximal.
